Measurements taken from ChEMBL document CHEMBL1201862, “PubChem BioAssay data set” (2004).
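Briefly, cells in 96-well plates were exposed to five compound concentrations for 48 h, and endpoints were estimated by linear interpolation. The concentration for 50% growth inhibition is given as GI50.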 Calls of active or inactive are those of the source. Rule as the data show it: active = GI50 up to about 1.1 µM and inactive = higher.

What was measured:
Experiment in all cases: NCI-60 cell line screen, 48 h
K562 = test system: K562
PC-3 = test system: PC-3
MDA-MB-231 = test system: MDA-MB-231
U-251 = test system: U-251
SK-MEL-2 = test system: SK-MEL-2
HOP-62 = test system: HOP-62
A498 = test system: A498
HT-29 = test system: HT-29
IGROV-1 = test system: IGROV-1
TK-10 = test system: TK-10
HCT-116 = test system: HCT-116
SW-620 = test system: SW-620
SNB-75 = test system: SNB-75
SR = test system: SR
Hs-578T = test system: Hs-578T
UACC-62 = test system: UACC-62
NCI-H522 = test system: NCI-H522
HL-60 = test system: HL-60
RPMI-8226 = test system: RPMI-8226
UO-31 = test system: UO-31

Measured: GI50

C=C1CC/C=C(\C)CCC[C@H](C)[C@@H](O)[C@@H]2OC(=O)C(=C)[C@@H]2C[C@H]1O
inactive: K562 2.99 µM | PC-3 10 µM | MDA-MB-231 14.9 µM | U-251 18.1 µM | SK-MEL-2 13.3 µM | HOP-62 16 µM | A498 66.4 µM | HT-29 4.22 µM | IGROV-1 3.88 µM | TK-10 1.49 µM | HCT-116 6.47 µM | SW-620 2.22 µM | SNB-75 12 µM | SR 4.83 µM | Hs-578T 7.91 µM | UACC-62 8.91 µM | NCI-H522 1.84 µM | HL-60 2.42 µM | RPMI-8226 3.52 µM | UO-31 6.22 µM

COC(=O)[C@H](COC(C)(C)C)NC(=O)N[C@H](C)c1ccccc1
inactive: K562 > 100 µM | PC-3 > 100 µM | MDA-MB-231 > 100 µM | U-251 > 100 µM | SK-MEL-2 > 100 µM | HOP-62 > 100 µM | A498 > 100 µM | HT-29 > 100 µM | IGROV-1 > 100 µM | TK-10 > 100 µM | HCT-116 > 100 µM | SW-620 > 100 µM | SNB-75 > 100 µM | SR > 100 µM | Hs-578T > 100 µM | UACC-62 > 100 µM | NCI-H522 > 100 µM | HL-60 > 100 µM | RPMI-8226 > 100 µM | UO-31 > 100 µM

COc1cc2oc(-c3ccc(O)cc3O)c(CC=C(C)C)c(=O)c2c(O)c1/C=C/C(C)C [ARTOCARPIN]
inactive: K562 2.12 µM | PC-3 2.79 µM | MDA-MB-231 2.55 µM | U-251 2.56 µM | SK-MEL-2 6.41 µM | HOP-62 2.42 µM | A498 2.21 µM | HT-29 2.51 µM | IGROV-1 3.52 µM | TK-10 4.85 µM | HCT-116 2.1 µM | SW-620 2.33 µM | SNB-75 3.04 µM | SR 2.02 µM | Hs-578T 3.44 µM | UACC-62 3.83 µM | NCI-H522 3.24 µM | HL-60 2.75 µM | RPMI-8226 2.62 µM | UO-31 2.95 µM

O=CC(I)=C(c1ccccc1)c1ccccc1
inactive: K562 18.5 µM | PC-3 15.2 µM | MDA-MB-231 14.6 µM | U-251 15.1 µM | SK-MEL-2 16.9 µM | HOP-62 18.1 µM | A498 20.7 µM | HT-29 14 µM | IGROV-1 19.2 µM | TK-10 19.5 µM | HCT-116 14.2 µM | SW-620 8.47 µM | SNB-75 17.1 µM | SR 6.92 µM | Hs-578T 24.5 µM | UACC-62 16.5 µM | NCI-H522 16.2 µM | HL-60 6.5 µM | RPMI-8226 8.51 µM | UO-31 14.3 µM
